For the assay, the system named is venous thrombosis. In words: venous thrombosis test in the rat (venous stasis under hypercoagulation with factor Xa, Wessler technique). The format is in vivo. Particulars: Wistar male rats. The protocol: The antithrombotic activity of the compounds according to the invention was studied in vivo in the rat by means of a test that reproduces a venous thrombosis.
The venous thrombosis was induced according to the protocol described in Thromb. Haemost., 1992, 67(1), 176-179. The intravenous or oral activity was studied according to the following operating protocol:
The experiments are performed on non-fasted Wistar male rats weighing 250 to 280 g, divided into groups of 10 animals each. The test products are administered either orally (tubage) dissolved or suspended in isotonic solution, or by intravenous injection dissolved in isotonic solution or in a PEG 400/water mixture. The concentration of the compounds is calculated so that the amount of solution absorbed is 2 ml/kg by oral administration and 1 ml/kg by intravenous injection. A thrombosis is induced at a time T (0.5, 2, 4 or 8 hours) after administration of the product, and the thrombus formed is removed and weighed. To induce this thrombosis, a venous stasis is created under hypercoagulation according to the technique described by WESSLER (J Applied Physiol., 1959, 943-946), the hypercoagulating agent used being a solution of activated factor X (Xa) having a concentration of 7.5 nKat/kg, supplied by Biogenic (Montpellier). The venous stasis is effected exactly 15 seconds after injection of the hypercoagulating agent. The activity of the test compounds was checked at different doses after they had been administered either orally (p.o.) or intravenously (i.v.). The thrombosis was induced 2 hours or 4 hours after oral administration of the compound and 2 hours after intravenous administration of the compound.

[1] abbreviates: Rattus norvegicus, iv, 2 h, intravenous, thrombosis induced 2 h after administration, read-out: Activity % (percentage inhibition of thrombus formation).
Setting [2] is: Rattus norvegicus, po, 4 h, oral, thrombosis induced 4 h after administration, read-out: Activity % (percentage inhibition of thrombus formation).
Where [3] appears, read: Rattus norvegicus, po, 2 h, oral, thrombosis induced 2 h after administration, read-out: Activity % (percentage inhibition of thrombus formation).
Where [4] appears, read: intravenous, dose 2.5 mg/kg, thrombosis induced 2 h after administration.

Structures can show the parent of a compound that is named as a salt. Where two headings read alike, the source gives them in different places.

As for `COC(=O)O[C@@H]1[C@@H](OC(=O)OC)[C@H](OC(=O)OC)CS[C@H]1Oc1cccnc1` [Example 31B, 3-Pyridinyl 2,3,4-Tris-O-(Methoxycarbonyl)-5-Thio-β-D-Xylopyranoside Methanesulfonate], under setting [1], the inhibition in vivo at 5 mg/kg is 88%. The inhibition in vivo at 8 mg/kg (Rattus norvegicus, po, 4 h, oral, dose 8 mg/kg, thrombosis induced 4 h after administration, read-out: Activity % (percentage inhibition of thrombus formation)) turned out to be 94%. Turning to `O[C@@H]1[C@@H](O)[C@H](Oc2cccnc2)SC[C@H]1O` [Example 2, 3-Pyridinyl 5-Thio-β-D-Xylopyranoside], under “Rattus norvegicus, iv, 2 h, intravenous, dose 2.5 mg/kg, thrombosis induced 2 h after administration, read-out: Activity % (percentage inhibition of thrombus formation)”, the inhibition in vivo at 2.5 mg/kg worked out at 72%. Besides, for the setting “Rattus norvegicus, po, 4 h, oral, dose 1.5 mg/kg, thrombosis induced 4 h after administration, read-out: Activity % (percentage inhibition of thrombus formation)”, the inhibition in vivo at 1.5 mg/kg was determined as 67%. The inhibition in vivo at 3 mg/kg under setting [2] was determined as 91%. As to `CC(=O)O[C@@H]1[C@@H](OC(C)=O)[C@H](OC(C)=O)CS[C@H]1Oc1cccnc1` [Example 1A, 3-Pyridinyl 2,3,4-tri-O-acetyl-5-thio-β-D-Xylopyranoside Methanesulfonate], the inhibition in vivo at 4 mg/kg under setting [1] is 83%. Under setting [2], the inhibition in vivo at 6 mg/kg stood at 51%.

For `Cc1ncccc1O[C@@H]1SC[C@@H](O)[C@H](O)[C@H]1O` [Example 12, 2-Methyl-3-Pyridinyl 5-Thio-β-D-Xylopyranoside], under setting [2], the inhibition in vivo at 3 mg/kg was 52%. Turning to `CC(=O)O[C@@H]1[C@@H](OC(C)=O)[C@H](OC(C)=O)CS[C@H]1Oc1cccnc1Cl` [Example 36, 2-Chloro-3-Pyridinyl 2,3,4-Tri-O-Acetyl-5-Thio-β-D-Xylopyranoside], the inhibition in vivo at 6 mg/kg under setting [3] amounted to 91%. The same measure, in the same setting: in the case of `O[C@@H]1[C@@H](O)[C@H](Oc2cncc(F)c2)SC[C@H]1O` [Example 49, 5-Fluoro-3-Pyridinyl 5-Thio-β-D-Xylopyranoside] it was 90%.

With `COC(=O)O[C@@H]1[C@@H](OC(=O)OC)[C@H](OC(=O)OC)CS[C@H]1Oc1cccnc1` [Example 31A, 3-Pyridinyl 2,3,4-Tris-O-(Methoxycarbonyl)-5-Thio-β-D-Xylopyranoside Hydrochloride], the inhibition in vivo at 5.6 mg/kg (Rattus norvegicus, po, 4 h, oral, dose 5.6 mg/kg, thrombosis induced 4 h after administration, read-out: Activity % (percentage inhibition of thrombus formation)) worked out at 63%. With `N#Cc1ncccc1O[C@@H]1SC[C@@H](O)[C@H](O)[C@H]1O` [Example 20, 2-Cyano-3-Pyridinyl 5-Thio-β-D-Xylopyranoside], the inhibition in vivo at 3 mg/kg under setting [2] came to 50%. Take `CCCC(=O)O[C@@H]1[C@@H](OC(=O)CCC)[C@H](OC(=O)CCC)CS[C@H]1Oc1cccnc1` [Example 93, 3-Pyridinyl 2,3,4-Tri-O-Butanoyl-5-Thio-β-D-Xylopyranoside]: the inhibition in vivo at 6 mg/kg under setting [3] stood at 81%.

Turning to `O[C@@H]1[C@@H](O)[C@H](Oc2cncc(Cl)c2)SC[C@H]1O` [Example 18, 5-Chloro-3-Pyridinyl 5-Thio-β-D-Xylopyranoside], the inhibition in vivo at 3 mg/kg under setting [2] worked out at 46%. For `O[C@@H]1[C@@H](O)[C@H](Oc2ccc(C(F)(F)F)nc2)SC[C@H]1O` [Example 41, 6-(Trifluoromethyl)-3-Pyridinyl 5-Thio-β-D-Xylopyranoside], the inhibition in vivo at 6 mg/kg under setting [3] came out at 97%. As to `Cl.O[C@@H]1[C@@H](O)[C@H](Oc2cccnc2)SC[C@H]1O` [Example 2C, 3-Pyridinyl 5-Thio-β-D-Xylopyranoside Hydrochloride], the inhibition in vivo at 4 mg/kg under setting [1] came to 95%. Under setting [2], the inhibition in vivo at 6 mg/kg was 55%. Under setting [4], the “Activity % (percentage inhibition of thrombus formation)” value is 72%. `CS(=O)(=O)O.O[C@@H]1[C@@H](O)[C@H](Oc2cccnc2)SC[C@H]1O` [Example 2A, 3-Pyridinyl 5-Thio-β-D-Xylopyranoside Methanesulfonate]: under setting [1], the inhibition in vivo at 5 mg/kg was 94%. For the same compound, the inhibition in vivo at 4.2 mg/kg (Rattus norvegicus, po, 2 h, oral, dose 4.2 mg/kg, thrombosis induced 2 h after administration, read-out: Activity % (percentage inhibition of thrombus formation)) came out at 96%. Besides, the “Activity % (percentage inhibition of thrombus formation)” value under setting [4] stood at 68%.

For the compound `O[C@@H]1[C@@H](O)[C@H](Oc2cccnc2Cl)SC[C@H]1O` [Example 37, 2-Chloro-3-Pyridinyl 5-Thio-β-D-Xylopyranoside], the inhibition in vivo at 6 mg/kg under setting [3] came to 96%.

These data come from US7470671B2, “Thioxylose compounds, preparation method thereof, pharmaceutical compositions containing same and use thereof in therapeutics” (Laboratoire Fournier, priority 2003, dated 2008).
